Assay results from US10653779B2, “Formulations with reduced oxidation” (Genentech, Inc., priority 2013, dated 2020).

Tested on: mAb1
Test: mAb1 Fenton stress study (H2O2 + Fe); Fab/Fc oxidation by RP-HPLC
Assay type: physicochemical, human
Conditions: 1 mM, 10 ppm H2O2, 0.2 mM Fe(III), 40° C. for 3 hours
Method: Antioxidants were added at a final concentration of 1 mM. […] After incubation, each reaction was quenched by addition of 100 mM L-Met and then prepared for analysis by reverse-phase HPLC as described above.
The Fenton reaction, using a mixture of H2O2 and Fe ions, generates oxidation through a metal catalyzed, hydroxyl radical reaction (Prousek et al., Pure and Applied Chemistry 79(12):2325-2338 (2007)). This reaction generated Fab, i.e. tryptophan, oxidation in mAb1. The reaction was also carried out in the presence of select antioxidants that were useful against both AAPH and light induced oxidation as reported above. Data related to the antioxidant properties against Fenton mediated reaction were analyzed using the RP-HPLC assay as described above. The Fenton reaction used 10 ppm of H2O2 and 0.2 mM of Fe(III). The reaction was incubated at 40° C. for 3 hours, quenched with 100 mM L-Met and analyzed using RP-HPLC after papain digest. All samples were the average of three separate vials, and mAb1 control (Ref Mat) was one vial with five independent injections on the HPLC. […] In regards to protection against Fc oxidation, the tested excipients (other than salicylic acid) performed slightly better than L-Trp.

N[C@@H](Cc1c[nH]c2ccccc12)C(=O)O [L-Trp, L-Tryptophan]
Protection of Fab oxidation with respect to the no excipient case: about 25%
